Results: patent publication US20040122083A1, “Antitubulin assembly and cell growth inhibitor denominated "dioxostatin"” (priority 2003, published 2004)
≈ marks a conversion by molar mass, not a printed value. Like-named read-outs stand apart in the source and are kept apart here.

Key:
[1] = system: the ten bacteria and fungi tested; assay: Disk susceptibility testing, whole panel; format: cell-based; details: at 100 μg/disk
Description: (§1) Antimicrobial susceptibility testing. […] Eur. J. Med. Chem. 1998, 33, 71-77).

cancer cell growth = details: cited from earlier work; for activity as cancer cell growth inhibitors: initial finding
BXPC-3 = assay: Human cancer cell line growth inhibition, Pancreas-a BXPC-3; format: cell-based; details: for GI50: Homo sapiens
NCI-H460 = assay: Human cancer cell line growth inhibition, Lung-NSC NCI-H460; format: cell-based; details: for GI50: Homo sapiens
DU-145 = assay: Human cancer cell line growth inhibition, Prostate DU-145; format: cell-based; details: for GI50: Homo sapiens
OVCAR-3 = assay: Human cancer cell line growth inhibition, Ovarian OVCAR-3; format: cell-based; details: for GI50: Homo sapiens
SF-295 = assay: Human cancer cell line growth inhibition, CNS SF-295; format: cell-based; details: for GI50: Homo sapiens
KM20L2 = assay: Human cancer cell line growth inhibition, Colon KM20L2; format: cell-based; details: for GI50: Homo sapiens, KM-20L2
Aqueous solubility = format: physicochemical
solid tumors = details: cited from earlier work
tubulin [2] = biological target: T1, tubulin (Bos taurus, UniProt P81947+Q6B856); assay: Inhibition of tubulin polymerization (assembly); format: biochemical
T1 sequence (Q6B856 whole entry): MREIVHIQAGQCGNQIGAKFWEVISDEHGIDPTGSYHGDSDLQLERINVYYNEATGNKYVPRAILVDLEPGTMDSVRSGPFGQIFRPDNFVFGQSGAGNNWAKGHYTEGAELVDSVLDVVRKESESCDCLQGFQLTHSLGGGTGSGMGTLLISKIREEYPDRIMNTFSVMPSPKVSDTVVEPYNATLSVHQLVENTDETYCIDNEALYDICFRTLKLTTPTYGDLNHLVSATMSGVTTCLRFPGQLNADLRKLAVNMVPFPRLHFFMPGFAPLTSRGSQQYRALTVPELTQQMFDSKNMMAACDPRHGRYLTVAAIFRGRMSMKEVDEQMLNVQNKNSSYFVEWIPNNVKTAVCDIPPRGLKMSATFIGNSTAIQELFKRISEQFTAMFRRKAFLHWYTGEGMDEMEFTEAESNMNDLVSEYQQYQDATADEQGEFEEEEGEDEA
T1 sequence (P81947 whole entry): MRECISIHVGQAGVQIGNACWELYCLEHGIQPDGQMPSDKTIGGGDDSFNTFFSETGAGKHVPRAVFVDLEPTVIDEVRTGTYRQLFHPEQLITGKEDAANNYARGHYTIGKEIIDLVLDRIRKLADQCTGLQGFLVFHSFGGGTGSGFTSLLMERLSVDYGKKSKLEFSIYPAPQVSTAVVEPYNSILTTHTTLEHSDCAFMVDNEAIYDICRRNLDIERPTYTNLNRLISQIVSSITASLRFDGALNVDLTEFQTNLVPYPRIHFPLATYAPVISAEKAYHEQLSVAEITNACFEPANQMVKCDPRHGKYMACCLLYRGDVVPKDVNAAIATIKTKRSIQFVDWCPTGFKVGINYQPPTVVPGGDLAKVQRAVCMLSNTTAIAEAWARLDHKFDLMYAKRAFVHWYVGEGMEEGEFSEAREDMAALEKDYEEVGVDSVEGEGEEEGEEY
Procedure: (§2) Tubulin assays. The tubulin polymerizion and colchicine binding experiments were performed as described previously (See: Verdier-Pinard, P.; Lai, J -Y.; Yoo, H -D.; Yu, J.; Marquez, B.; Nagle, D. G.; Nambu, M.; White, J. D.; Falck, J. R; Gerwick, W. H.; Day, B. W.; Hamel, E. Mol. Pharmacol. 1998, 53, 62-76). However, in the polymerization assays Beckman DU7400/7500 spectrophotometers equipped with “high performance” temperature controllers were used. […] Temperature changes were, however, more rapid, with the jump from the lower temperature to 30EC taking about 20 sec and the reverse jump about 100 sec.

tubulin [3] = biological target: T1, tubulin; assay: Inhibition of [3H]colchicine binding to tubulin
Procedure: as §2

SK-N-SH = assay: Human cancer cell line growth inhibition, Neuroblast SK-N-SH; format: cell-based; details: for GI50: Homo sapiens
SW1736 = assay: Human cancer cell line growth inhibition, Thyroid ca SW1736; format: cell-based; details: for GI50: Homo sapiens, SW-1736
FADU = assay: Human cancer cell line growth inhibition, Pharynx-sq FADU; format: cell-based; details: for GI50: Homo sapiens, FaDu
A498 = assay: Human cancer cell line growth inhibition, Renal A498; format: cell-based; details: for GI50: Homo sapiens
Streptococcus pneumoniae = assay: Disk susceptibility testing; format: cell-based
Description: as §1

Neisseria gonorrhoeae = assay: Disk susceptibility testing; format: cell-based
Description: as §1

Staphylococcus aureus = assay: Disk susceptibility testing; format: cell-based
Description: as §1

colchicine binding = details: at equal concentrations; cited from earlier work
Candida albicans = system: Candida albicans
Description: as §1

Cryptococcus neoformans = system: Cryptococcus neoformans
Description: as §1

[4] = system: Stenotrophomonas maltophilia
Description: as §1

[5] = Table IV and text, read-out: Inhibition of Tubulin Assembly IC50 ± SD
[6] = Table II, tubulin concentration 10 μM, read-out: Inhibition of tubulin Polymerization IC50 ± SD
[7] = read-out: % Inhibition Colchicine binding ± SD

COc1ccc(/C=C/c2cc(OC)c(OC)c(OC)c2)cc1O [Compound 2d]
Microbe(s) inhibited, whole panel [1]: * (at 100 μg/disk, no inhibition of the ten bacteria and fungi tested) | activity as cancer cell growth inhibitor (cancer cell growth; freshly prepared solutions in dimethyl sulfoxide): inactive | activity as cancer cell growth inhibitors (cancer cell growth): moderately active

COc1cc([C@@H]2OCO[C@H]2c2ccc(OC)c(OP(=O)([O-])[O-])c2OP(=O)([O-])[O-])cc(OC)c1OC.[Na+].[Na+].[Na+].[Na+] [(S,S)-21, Tetrasodium-(4S,5S)-4-(2′,3′-O-diphosphonate-4′-methoxyphenyl)-5-(3″,4″,5″-trimethoxyphenyl)-1,3-dioxolane]
GI50 (BXPC-3): > 10 mg/L | GI50 (NCI-H460): 3.4 mg/L | GI50 (DU-145): 2.9 mg/L | GI50 (OVCAR-3): 2.6 mg/L | GI50 (SF-295): 3.2 mg/L | GI50 (KM20L2): > 10 mg/L | solubility (Aqueous solubility): > 35 mg/mL

COc1ccc(/C=C\c2cc(OC)c(OC)c(OC)c2)cc1O [Compound 1b, combretastatin A-4]
degree of reduction, vascular shutdown within solid tumors (solid tumors): 70%

COc1ccc([C@@H]2OCO[C@H]2c2cc(OC)c(OC)c(OC)c2)c(O)c1O [(S,S)-9a, (4S,5S)-4-(2′,3′-dihydroxy-4′-methoxyphenyl)-5-(3″,4″,5″-trimethoxyphenyl)-1,3-dioxolane]
Pancreas-a BXPC-3 GI50 (BXPC-3): 5.4 mg/L | Lung-NSC NCI-H460 GI50 (NCI-H460): >10 mg/L | Prostate DU-145 GI50 (DU-145): 3.0 mg/L | Ovarian OVCAR-3 GI50 (OVCAR-3): 4.3 mg/L | CNS SF-295 GI50 (SF-295): 2.9 mg/L | Colon KM20L2 GI50 (KM20L2): 5.0 mg/L | IC50 (tubulin [2]; [5]): 0.59 µM | % Inhibition Colchicine binding ± SD (tubulin [3]; 1 μM Inhibitor): 67 ± 6% | % Inhibition Colchicine binding ± SD (tubulin [3]; 5 μM Inhibitor): 91 ± 1%

COc1ccc([C@@H](O)[C@H](O)c2cc(OC)c(OC)c(OC)c2)cc1O [(R,R)-3a]
Pancreas-a BXPC-3 GI50 (BXPC-3): >10 mg/L | Neuroblast SK-N-SH GI50 (SK-N-SH): 1.5 mg/L | Thyroid ca SW1736 GI50 (SW1736): 6.1 mg/L | Lung-NSC NCI-H460 GI50 (NCI-H460): 4.4 mg/L | Pharynx-sq FADU GI50 (FADU): 2.1 mg/L | Prostate DU-145 GI50 (DU-145): 3.5 mg/L | Ovarian OVCAR-3 GI50 (OVCAR-3): 4.5 mg/L | CNS SF-295 GI50 (SF-295): 5.7 mg/L | Renal A498 GI50 (A498): >10 mg/L | Colon KM20L2 GI50 (KM20L2): 8.2 mg/L | IC50 (tubulin [2]; [6]): > 40 µM | Minimum inhibitory Concentration (Streptococcus pneumoniae): 50-100 μg/disk

COc1ccc([C@H]2OCO[C@@H]2c2cc(OC)c(OC)c(OC)c2)c(O)c1O [(R,R)-10a, (4R,5R)-4-(2′,3′-Dihydroxy-4′-methoxyphenyl)-5-(3″,4″,5″-trimethoxyphenyl)-1,3-dioxolane]
Pancreas-a BXPC-3 GI50 (BXPC-3): >10 mg/L | Lung-NSC NCI-H460 GI50 (NCI-H460): >10 mg/L | Prostate DU-145 GI50 (DU-145): >10 mg/L | Ovarian OVCAR-3 GI50 (OVCAR-3): >10 mg/L | CNS SF-295 GI50 (SF-295): 5.0 mg/L | Colon KM20L2 GI50 (KM20L2): >10 mg/L | IC50 (tubulin [2]; [5]): 5.7 ± 0.8 µM | % Inhibition Colchicine binding ± SD (tubulin [3]; 5 μM Inhibitor): 14 ± 5% | % Inhibition Colchicine binding ± SD (tubulin [3]; 50 μM Inhibitor): 57 ± 0.8%

COc1ccc([C@@H](O)[C@H](O)c2cc(OC)c(OC)c(OC)c2)c(O)c1O [(R,R)-3b, (1R,2R)-1,2-Dihydroxy-1-(2′,3′-dihydroxy-4′-methoxyphenyl)-2-(3″,4″,5″-trimethoxyphenyl)-ethane]
GI50 (BXPC-3): > 10 mg/L | GI50 (SK-N-SH): 3.1 mg/L (≈ 8.46 µM) | GI50 (SW1736): > 10 mg/L | GI50 (NCI-H460): 7.9 mg/L (≈ 21.6 µM) | GI50 (FADU): 4.9 mg/L (≈ 13.4 µM) | GI50 (DU-145): > 10 mg/L | GI50 (OVCAR-3): 7.2 mg/L (≈ 19.7 µM) | GI50 (SF-295): 2.6 mg/L (≈ 7.1 µM) | GI50 (A498): > 10 mg/L | GI50 (KM20L2): 7 mg/L (≈ 19.1 µM) | Microbe(s) inhibited, whole panel [1]: * (at 100 μg/disk, no inhibition of the ten bacteria and fungi tested) | melting point: 64 to 66 °C

COc1ccc(/C=C\c2cc(OC)c(OC)c(OC)c2)cc1OP(=O)([O-])[O-].[Na+].[Na+] [Compound 1d]
vascular shutdown within metastatic tumors (solid tumors; doses one-tenth of the maximum tolerated dose): complete vascular shutdown

COc1ccc(/C=C\c2cc(OC)c(OC)c(OC)c2)c(O)c1O [Compound 1a, combretastatin A-1, reference compound]
inhibition at 1 µM (tubulin [3]; [7]): 89 ± 3% | inhibition at 5 µM (tubulin [3]; [7]): 99.6% | Minimum inhibitory Concentration (Neisseria gonorrhoeae): 25-50 μg/disk | Minimum inhibitory Concentration (Staphylococcus aureus): 50-100 μg/disk | inhibition of colchicine binding (colchicine binding): ~99% | degree of reduction, vascular shutdown within solid tumors (solid tumors): 50%

COc1ccc([C@H](O)[C@@H](O)c2cc(OC)c(OC)c(OC)c2)c(O)c1O [(S,S)-4b]
GI50 (BXPC-3): > 10 mg/L | GI50 (SK-N-SH): 3.8 mg/L (≈ 10.4 µM) | GI50 (SW1736): > 10 mg/L | GI50 (NCI-H460): > 10 mg/L | GI50 (FADU): > 10 mg/L | GI50 (DU-145): > 10 mg/L | GI50 (OVCAR-3): > 10 mg/L | GI50 (SF-295): 2.9 mg/L (≈ 7.92 µM) | GI50 (A498): > 10 mg/L | GI50 (KM20L2): > 10 mg/L | Minimum inhibitory Concentration (Neisseria gonorrhoeae): 25-50 μg/disk | melting point: 64 to 66 °C

COc1ccc(/C=C/c2cc(OC)c(OC)c(OC)c2)c(O)c1O [Compound 2b, E-combretastatin A-1]
Minimum inhibitory Concentration (Neisseria gonorrhoeae): 6.25-12.5 μg/disk | Minimum inhibitory Concentration (Streptococcus pneumoniae): 50-100 μg/disk | Minimum inhibitory Concentration (Candida albicans): 50-100 μg/disk | Minimum inhibitory Concentration (Cryptococcus neoformans): 50-100 μg/disk | Minimum inhibitory Concentration [4]: 50-100 μg/disk | activity as cancer cell growth inhibitors (cancer cell growth): moderately active

COc1ccc([C@H](O)[C@@H](O)c2cc(OC)c(OC)c(OC)c2)cc1O [(S,S)-4a]
Pancreas-a BXPC-3 GI50 (BXPC-3): 3.9 mg/L | Neuroblast SK-N-SH GI50 (SK-N-SH): 0.28 mg/L | Thyroid ca SW1736 GI50 (SW1736): 1.8 mg/L | Lung-NSC NCI-H460 GI50 (NCI-H460): 2.5 mg/L | Pharynx-sq FADU GI50 (FADU): 0.60 mg/L | Prostate DU-145 GI50 (DU-145): 2.1 mg/L | Ovarian OVCAR-3 GI50 (OVCAR-3): 0.38 mg/L | CNS SF-295 GI50 (SF-295): 0.52 mg/L | Renal A498 GI50 (A498): 0.91 mg/L | Colon KM20L2 GI50 (KM20L2): 0.52 mg/L | IC50 (tubulin [2]; [6]): 14 ± 2 µM | Minimum inhibitory Concentration (Streptococcus pneumoniae): 25-50 μg/disk
